# Assay results reported in ChEMBL document CHEMBL4627346, “Ultrasound assisted rapid synthesis of mefenamic acid based indole derivatives under ligand free Cu-catalysis: Their pharmacological evaluation” (Bioorg Med Chem Lett, 2020).
# What was measured:
# [1] = biological target: T1, 3',5'-cyclic-AMP phosphodiesterase 4B (Homo sapiens, UniProt Q07343); experiment: Inhibition of recombinant human PDE4B expressed in baculovirus infected Sf9 cells at 10 uM using [3H] cAMP as substrate after 30 min by scintillation proximity assay relative to control
# [2] = biological target: T2, 3',5'-cyclic-AMP phosphodiesterase 4D (Homo sapiens, UniProt Q08499); experiment: Inhibition of PDE4D2 (unknown origin) at 30 uM relative to control
# [3] = biological target: T1, 3',5'-cyclic-AMP phosphodiesterase 4B; experiment: Inhibition of recombinant human PDE4B expressed in baculovirus infected Sf9 cells using [3H] cAMP as substrate after 30 min by scintillation proximity assay
# [4] = biological target: T2, 3',5'-cyclic-AMP phosphodiesterase 4D; experiment: Inhibition of PDE4D2 (unknown origin) at 10 nM relative to control
# [5] = biological target: T1, 3',5'-cyclic-AMP phosphodiesterase 4B; settings: Sf9, 10 nM
# Description: Inhibition of recombinant human PDE4B expressed in baculovirus infected Sf9 cells at 10 nM using [3H] cAMP as substrate after 30 min by scintillation proximity assay relative to control
# CAL-27 = experiment: Antiproliferative activity against human CAL27 cells assessed as growth inhibition at 10 uM incubated for 72 hrs by sulforhodamine B assay; type: functional; settings: CAL-27, 72 h, read-out: GI
# Homo sapiens = species: Homo sapiens; experiment: Selectivity ratio of inhibition of PDE4D2 (unknown origin) to inhibition of recombinant human PDE4B expressed in baculovirus infected Sf9 cells using [3H] cAMP as substrate after 30 min
# Phosphodiesterase 4 = Phosphodiesterase 4 (Homo sapiens, UniProt P27815+Q08499+Q07343+Q08493); experiment: Inhibition of PDE4 (unknown origin) assessed as inhibition of TNF-alpha release; type: protein assay
# [6] = Metabolic stability in rat liver microsomes assessed as parent compound remaining at 5 uM after 60 mins; type: ADME, Microsome; settings: read-out: Stability
# [7] = Half life in rat liver microsomes at 5 uM incubated for 60 mins; type: ADME, Microsome
# [8] = Intrinsic clearance in rat liver microsomes at 5 uM after 60 mins; type: ADME, Microsome; settings: read-out: CLH
# [9] = biological target: T2, 3',5'-cyclic-AMP phosphodiesterase 4D; experiment: Inhibition of PDE4D2 (unknown origin) at 10 uM relative to control
# T1 sequence (Q07343 whole entry): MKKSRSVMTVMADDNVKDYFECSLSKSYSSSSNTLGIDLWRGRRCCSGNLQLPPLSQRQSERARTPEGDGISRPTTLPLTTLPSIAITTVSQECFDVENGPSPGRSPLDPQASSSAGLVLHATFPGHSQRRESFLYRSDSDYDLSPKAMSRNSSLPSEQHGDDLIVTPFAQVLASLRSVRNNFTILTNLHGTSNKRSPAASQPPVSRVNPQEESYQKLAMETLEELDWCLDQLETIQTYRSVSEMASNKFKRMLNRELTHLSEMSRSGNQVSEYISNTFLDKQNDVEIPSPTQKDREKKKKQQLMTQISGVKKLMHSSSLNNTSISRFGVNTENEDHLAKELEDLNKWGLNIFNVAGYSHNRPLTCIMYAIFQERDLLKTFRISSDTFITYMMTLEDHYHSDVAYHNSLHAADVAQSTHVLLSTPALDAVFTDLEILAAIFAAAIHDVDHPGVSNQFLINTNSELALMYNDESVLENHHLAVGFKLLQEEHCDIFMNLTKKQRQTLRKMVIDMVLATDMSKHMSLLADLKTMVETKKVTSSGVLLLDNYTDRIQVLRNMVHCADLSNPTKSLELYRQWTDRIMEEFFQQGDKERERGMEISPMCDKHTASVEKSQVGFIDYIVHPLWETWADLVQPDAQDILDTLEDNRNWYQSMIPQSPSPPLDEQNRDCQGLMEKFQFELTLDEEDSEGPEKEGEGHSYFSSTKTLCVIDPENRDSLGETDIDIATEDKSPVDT
# T2 sequence (Q08499 whole entry): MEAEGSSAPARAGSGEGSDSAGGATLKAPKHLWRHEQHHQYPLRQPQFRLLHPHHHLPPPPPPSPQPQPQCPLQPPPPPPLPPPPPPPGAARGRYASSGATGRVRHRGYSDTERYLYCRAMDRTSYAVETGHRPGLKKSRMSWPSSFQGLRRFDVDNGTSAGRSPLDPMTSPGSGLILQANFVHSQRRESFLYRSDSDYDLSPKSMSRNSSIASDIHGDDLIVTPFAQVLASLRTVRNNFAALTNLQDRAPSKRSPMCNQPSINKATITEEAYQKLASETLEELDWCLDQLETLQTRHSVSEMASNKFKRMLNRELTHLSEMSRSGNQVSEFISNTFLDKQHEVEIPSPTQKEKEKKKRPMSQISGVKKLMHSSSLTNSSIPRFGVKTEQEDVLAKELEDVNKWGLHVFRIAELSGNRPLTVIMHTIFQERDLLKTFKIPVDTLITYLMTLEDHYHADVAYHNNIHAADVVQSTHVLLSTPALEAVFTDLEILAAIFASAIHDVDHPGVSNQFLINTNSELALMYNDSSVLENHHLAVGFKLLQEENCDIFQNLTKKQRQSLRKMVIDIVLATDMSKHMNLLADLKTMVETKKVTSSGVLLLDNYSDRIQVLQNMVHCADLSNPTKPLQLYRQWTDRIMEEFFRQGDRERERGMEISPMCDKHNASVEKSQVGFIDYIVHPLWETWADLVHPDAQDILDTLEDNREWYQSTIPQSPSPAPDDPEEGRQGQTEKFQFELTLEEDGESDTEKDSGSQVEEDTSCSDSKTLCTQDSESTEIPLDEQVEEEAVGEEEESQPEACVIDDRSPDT
inhibition [1],inhibition at 30 µM [2],SMILES,also measured
55.1%,38.9%,Cc1ccc2c(c1)cc(COCc1ccccc1Nc1cccc(C)c1C)n2S(C)(=O)=O,IC50 [3]: 4.13 µM
–,–,O=C(Nc1c(Cl)cncc1Cl)c1ccc(OC(F)F)c(OCC2CC2)c1 [ROFLUMILAST],inhibition at 0.01 µM [4]: 88.3%; inhibition [5]: 91.6%
38.9%,35.5%,Cc1cccc(Nc2ccccc2C(=O)O)c1C [MEFENAMIC ACID],–
24.6%,–,Cc1ccc(S(=O)(=O)n2c(COCc3ccccc3Nc3cccc(C)c3C)cc3cc(Br)ccc32)cc1,–
37.3%,–,Cc1cc(C)c2c(c1)cc(COCc1ccccc1Nc1cccc(C)c1C)n2S(C)(=O)=O,–
54.9%,33.6%,Cc1cccc(Nc2ccccc2COCc2cc3cc(Cl)ccc3n2S(C)(=O)=O)c1C,IC50 [3]: 4.48 µM
40.4%,–,Cc1cccc(Nc2ccccc2COCc2cc3cc(Br)ccc3n2S(C)(=O)=O)c1C,–
34.6%,–,Cc1ccc(S(=O)(=O)n2c(COCc3ccccc3Nc3cccc(C)c3C)cc3cc(F)ccc32)cc1,–
68%,42%,Cc1cccc(Nc2ccccc2COCc2cc3cc(F)ccc3n2S(C)(=O)=O)c1C,"inhibition of growth at 10 µM (CAL-27): 55.6%; IC50 [3]: 1.34 µM; Selectivity ratio (Homo sapiens): 4.5; IC50 (Phosphodiesterase 4): 5.81 µM; inhibition (Phosphodiesterase 4): Dose-dependent effect; remaining at 1 h, 5 µM [6]: 64.9%; half-life at 5 µM [7]: 1.83 h; microsomal CLint at 5 µM [8]: 25.2 µL/min/mg; inhibition at 10 µM [9]: 15%"
23.1%,–,Cc1ccc(S(=O)(=O)n2c(COCc3ccccc3Nc3cccc(C)c3C)cc3cc(C)cc(C)c32)cc1,–
26.8%,–,Cc1ccc(S(=O)(=O)n2c(COCc3ccccc3Nc3cccc(C)c3C)cc3cc(Cl)ccc32)cc1,–
32.1%,–,CCc1ccc2c(c1)cc(COCc1ccccc1Nc1cccc(C)c1C)n2S(=O)(=O)c1ccc(C)cc1,–
39.9%,–,Cc1ccc(S(=O)(=O)n2c(COCc3ccccc3Nc3cccc(C)c3C)cc3ccccc32)cc1,–
36.2%,–,Cc1ccc(S(=O)(=O)n2c(COCc3ccccc3Nc3cccc(C)c3C)cc3cc(C)ccc32)cc1,–
61.5%,40.9%,Cc1cccc(Nc2ccccc2COCc2cc3ccccc3n2S(C)(=O)=O)c1C,IC50 [3]: 1.76 µM
